Test results reported in ChEMBL document CHEMBL1201862, “PubChem BioAssay data set” (2004).
“And” between values parts separate entries of the source, which are not always exact repeats. Identical values can stand only once.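 Growth conditions: 96-well plates. Treatment: test compound, 48 hours, 5 concentrations. Analysis: linear interpolation between bracketing concentrations; unreached endpoints set to highest concentration. At the GI50, growth is halved.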 The source made the active and inactive calls. Cut-off read from the data, not from the text of the source: active = GI50 up to about 1.1 µM and inactive = higher.

Assays:
Experiment in all cases: NCI anticancer screen, dose series, 48 h
786-0 = tested on: 786-0
A498 = tested on: A498
A549 = tested on: A549
ACHN = tested on: ACHN
CAKI-1 = tested on: CAKI-1
CCRF-CEM = tested on: CCRF-CEM
COLO 205 = tested on: COLO 205
DLD-1 = tested on: DLD-1
DMS-273 = tested on: DMS-273
EKVX = tested on: EKVX
HCC 2998 = tested on: HCC 2998
HCT-116 = tested on: HCT-116
HCT-15 = tested on: HCT-15
HOP-18 = tested on: HOP-18
HOP-62 = tested on: HOP-62
HOP-92 = tested on: HOP-92
HT-29 = tested on: HT-29
IGROV-1 = tested on: IGROV-1
K562 = tested on: K562
KM-20L2 = tested on: KM-20L2
KM12 = tested on: KM12
LOX IMVI = tested on: LOX IMVI
LXFL 529 = tested on: LXFL 529
M14 = tested on: M14
M19-MEL = tested on: M19-MEL
MOLT-4 = tested on: MOLT-4
Malme-3M = tested on: Malme-3M
NCI-H226 = tested on: NCI-H226
NCI-H23 = tested on: NCI-H23
NCI-H460 = tested on: NCI-H460
NCI-H522 = tested on: NCI-H522
OVCAR-3 = tested on: OVCAR-3
OVCAR-4 = tested on: OVCAR-4
OVCAR-5 = tested on: OVCAR-5
OVCAR-8 = tested on: OVCAR-8
RPMI-8226 = tested on: RPMI-8226
RXF 393 = tested on: RXF 393
RXF 631 = tested on: RXF 631
SF-268 = tested on: SF-268
SF-295 = tested on: SF-295
SK-MEL-28 = tested on: SK-MEL-28
SK-MEL-2 = tested on: SK-MEL-2
SK-MEL-5 = tested on: SK-MEL-5
SK-OV-3 = tested on: SK-OV-3
SN12C = tested on: SN12C
SNB-19 = tested on: SNB-19
SNB-75 = tested on: SNB-75
SNB-78 = tested on: SNB-78
SR = tested on: SR
SW-620 = tested on: SW-620
TK-10 = tested on: TK-10
U-251 = tested on: U-251
UACC-257 = tested on: UACC-257
UACC-62 = tested on: UACC-62
UO-31 = tested on: UO-31
DMS-114 = tested on: DMS-114
SF-539 = tested on: SF-539
BT-549 = tested on: BT-549
DU-145 = tested on: DU-145
MDA-MB-435 = tested on: MDA-MB-435
MDA-N = tested on: MDA-N
NCI/ADR-RES = tested on: NCI/ADR-RES
T47D = tested on: T47D
XF498 = tested on: XF498

SMILES: Cc1ccc(S(=O)(=O)OCCOCCOCCOCCOCCOS(=O)(=O)c2ccc(C)cc2)cc1
- GI50 (786-0): 62.8 µM (inactive)
- GI50 (A498): 44.4 µM (inactive)
- GI50 (A549): 69.8 µM (inactive)
- GI50 (ACHN): 36.6 µM (inactive)
- GI50 (CAKI-1): 47.1 µM (inactive)
- GI50 (CCRF-CEM): 21.4 µM (inactive)
- GI50 (COLO 205): 17.2 µM (inactive)
- GI50 (DLD-1): 60.8 µM (inactive)
- GI50 (DMS-273): 28.6 µM (inactive)
- GI50 (EKVX): 94.2 µM (inactive)
- GI50 (HCC 2998): 41.6 µM (inactive)
- GI50 (HCT-116): 52.5 µM (inactive)
- GI50 (HCT-15): 55.6 µM
- GI50 (HOP-18): 65.3 µM (inactive)
- GI50 (HOP-62): 30.1 µM (inactive)
- GI50 (HOP-92): 35.7 µM (inactive)
- GI50 (HT-29): 28.3 µM (inactive)
- GI50 (IGROV-1): 79.8 µM (inactive)
- GI50 (K562): 31.7 µM (inactive)
- GI50 (KM-20L2): 59.2 µM (inactive)
- GI50 (KM12): 55.7 µM (inactive)
- GI50 (LOX IMVI): 45.2 µM (inactive)
- GI50 (LXFL 529): 33.7 µM (inactive)
- GI50 (M14): 45.1 µM (inactive)
- GI50 (M19-MEL): 30.3 µM (inactive)
- GI50 (MOLT-4): 14.4 µM (inactive)
- GI50 (Malme-3M): 73.6 µM (inactive)
- GI50 (NCI-H226): 33.5 µM (inactive)
- GI50 (NCI-H23): 21.3 µM (inactive)
- GI50 (NCI-H460): 36.7 µM (inactive)
- GI50 (NCI-H522): 23.7 µM (inactive)
- GI50 (OVCAR-3): 21.7 µM (inactive)
- GI50 (OVCAR-4): 51.3 µM (inactive)
- GI50 (OVCAR-5): > 100 µM (inactive)
- GI50 (OVCAR-8): 22.6 µM (inactive)
- GI50 (RPMI-8226): 33.5 µM (inactive)
- GI50 (RXF 393): > 100 µM (inactive)
- GI50 (RXF 631): 27.1 µM (inactive)
- GI50 (SF-268): > 100 µM (inactive)
- GI50 (SF-295): 50.7 µM (inactive)
- GI50 (SK-MEL-28): > 100 µM (inactive)
- GI50 (SK-MEL-2): 41.5 µM (inactive)
- GI50 (SK-MEL-5): 18.4 µM (inactive)
- GI50 (SK-OV-3): > 100 µM (inactive)
- GI50 (SN12C): 39.7 µM (inactive)
- GI50 (SNB-19): > 100 µM (inactive)
- GI50 (SNB-75): > 100 µM (inactive)
- GI50 (SNB-78): 83.9 µM (inactive)
- GI50 (SR): 54.3 µM (inactive)
- GI50 (SW-620): 91.2 µM (inactive)
- GI50 (TK-10): 36.7 µM (inactive)
- GI50 (U-251): 58.3 µM (inactive)
- GI50 (UACC-257): 25 µM (inactive)
- GI50 (UACC-62): 61.4 µM (inactive)
- GI50 (UO-31): 28.8 µM (inactive)

SMILES: CC(C)N(C(=O)C12C3C4C1C1C2C3C41C(N)=O)C(C)C (centres undefined)
- GI50 (786-0): > 100 µM (inactive)
- GI50 (A498): > 100 µM (inactive)
- GI50 (A549): > 100 µM (inactive)
- GI50 (ACHN): > 100 µM (inactive)
- GI50 (CAKI-1): > 100 µM (inactive)
- GI50 (CCRF-CEM): > 100 µM (inactive)
- GI50 (COLO 205): > 100 µM (inactive)
- GI50 (DMS-114): > 100 µM (inactive)
- GI50 (DMS-273): > 100 µM (inactive)
- GI50 (EKVX): > 100 µM (inactive)
- GI50 (HCC 2998): > 100 µM (inactive)
- GI50 (HCT-15): > 100 µM
- GI50 (HOP-62): > 100 µM (inactive)
- GI50 (HOP-92): > 100 µM (inactive)
- GI50 (IGROV-1): > 100 µM (inactive)
- GI50 (K562): > 100 µM (inactive)
- GI50 (KM-20L2): > 100 µM (inactive)
- GI50 (LXFL 529): > 100 µM (inactive)
- GI50 (M14): > 100 µM (inactive)
- GI50 (M19-MEL): > 100 µM (inactive)
- GI50 (MOLT-4): > 100 µM (inactive)
- GI50 (Malme-3M): > 100 µM (inactive)
- GI50 (NCI-H522): > 100 µM (inactive)
- GI50 (OVCAR-3): > 100 µM (inactive)
- GI50 (OVCAR-8): > 100 µM (inactive)
- GI50 (RXF 631): > 100 µM (inactive)
- GI50 (SF-268): > 100 µM (inactive)
- GI50 (SF-295): > 100 µM (inactive)
- GI50 (SF-539): > 100 µM (inactive)
- GI50 (SK-MEL-5): > 100 µM (inactive)
- GI50 (SK-OV-3): > 100 µM (inactive)
- GI50 (SN12C): > 100 µM (inactive)
- GI50 (SNB-19): > 100 µM (inactive)
- GI50 (SNB-78): > 100 µM (inactive)
- GI50 (SR): > 100 µM (inactive)
- GI50 (SW-620): > 100 µM (inactive)
- GI50 (U-251): > 100 µM (inactive)
- GI50 (UO-31): > 100 µM (inactive)

SMILES: O=C1C(CN(Cc2ccccc2)Cc2ccccc2)CCCC1CN(Cc1ccccc1)Cc1ccccc1 (centres undefined)
- GI50 (A498): > 78.9 µM (inactive) and 41.5 µM (inactive)
- GI50 (A549): > 54.5 µM (inactive)
- GI50 (BT-549): > 100 µM (inactive) and > 79.8 µM (inactive)
- GI50 (DU-145): > 100 µM (inactive)
- GI50 (HCC 2998): > 53.2 µM (inactive) and > 69.7 µM (inactive)
- GI50 (HOP-62): > 62.1 µM (inactive)
- GI50 (HOP-92): 16.7 µM (inactive) and 27.3 µM (inactive)
- GI50 (IGROV-1): 69.5 µM (inactive) and > 45.7 µM (inactive)
- GI50 (MDA-MB-435): > 100 µM (inactive) and > 92.3 µM (inactive)
- GI50 (MDA-N): > 76 µM (inactive)
- GI50 (NCI-H226): > 68.7 µM (inactive) and 52.1 µM (inactive)
- GI50 (NCI-H460): > 87.3 µM (inactive) and 43.9 µM (inactive)
- GI50 (NCI/ADR-RES): > 100 µM (inactive) and > 89.1 µM (inactive)
- GI50 (OVCAR-5): 34.8 µM (inactive) and > 65.3 µM (inactive)
- GI50 (RXF 631): > 100 µM (inactive)
- GI50 (SF-295): 44.9 µM (inactive) and 35.9 µM (inactive)
- GI50 (SK-MEL-5): > 42.5 µM (inactive) and 66.8 µM (inactive)
- GI50 (SK-OV-3): > 61.1 µM (inactive) and 44.5 µM (inactive)
- GI50 (SNB-19): > 57 µM (inactive)
- GI50 (T47D): > 100 µM (inactive)
- GI50 (XF498): 15.1 µM (inactive)
